Tested on: ArH(P)PR
Test: photometric NAD(P)H oxidation at […] nm, Michaelis-Menten fit
Assay type: biochemical, Actaea racemosa
Conditions: 0.1 M KPi pH 7.5
[1] = co-substrate concentration not in main text (Suppl. Table S3)

Km (1 mM NADPH) [µM] | Compound | also measured
24000 ± 4650 | O=C(O)C(=O)Cc1ccc(O)c(O)c1 [DHPP, 3,4-dihydroxyphenylpyruvic acid] | 
 | NC(=O)C1=CN([C@@H]2O[C@H](COP(=O)(O)OP(=O)(O)OC[C@H]3O[C@@H](n4cnc5c(N)ncnc54)[C@H](O)[C@@H]3O)[C@@H](O)[C@H]2O)C=CC1 [NADH] | Km [1]: 660 ± 90 µM
 | NC(=O)C1=CN([C@@H]2O[C@H](COP(=O)(O)OP(=O)(O)OC[C@H]3O[C@@H](n4cnc5c(N)ncnc54)[C@H](OP(=O)(O)O)[C@@H]3O)[C@@H](O)[C@H]2O)C=CC1 [NADPH] | Km [1]: 23 ± 4 µM
1890 ± 510 | CC(=O)C(=O)O [P, pyruvic acid] | 
5320 ± 2770 | O=C(O)C(=O)Cc1ccccc1 [PP, phenylpyruvic acid] | 
1130 ± 120 | O=C(O)C(=O)Cc1ccc(O)cc1 [pHPP, 4-hydroxyphenylpyruvic acid] | 
 | O=C(O)C(=O)CO [β-HP, β-hydroxypyruvic acid] | Km (1 mM NADPH, error is SEM, substrate inhibition above 1 mM): 260 ± 120 µM

— article PMC10978636, “Hydroxy(phenyl)pyruvic acid reductase in Actaea racemosa L.: a putative enzyme in cimicifugic and fukinolic acid biosynthesis” (Planta, 2024)
